{
  "source": "ChEMBL document CHEMBL3751820",
  "about": "“Synthesis and evaluation of bis-thiazole derivatives as new anticancer agents” (Eur J Med Chem, 2016)",
  "key": {"[1]": {"assay": "Cytotoxicity against mouse NIH/3T3 cells after 24 hrs by MTT assay", "assay_type": "cell-based", "conditions": "NIH3T3, 24 h"}, "Cholinesterase [2]": {"molecular_target": "T1, Cholinesterase (Homo sapiens, UniProt P06276)", "T1 sequence (P06276 whole entry)": "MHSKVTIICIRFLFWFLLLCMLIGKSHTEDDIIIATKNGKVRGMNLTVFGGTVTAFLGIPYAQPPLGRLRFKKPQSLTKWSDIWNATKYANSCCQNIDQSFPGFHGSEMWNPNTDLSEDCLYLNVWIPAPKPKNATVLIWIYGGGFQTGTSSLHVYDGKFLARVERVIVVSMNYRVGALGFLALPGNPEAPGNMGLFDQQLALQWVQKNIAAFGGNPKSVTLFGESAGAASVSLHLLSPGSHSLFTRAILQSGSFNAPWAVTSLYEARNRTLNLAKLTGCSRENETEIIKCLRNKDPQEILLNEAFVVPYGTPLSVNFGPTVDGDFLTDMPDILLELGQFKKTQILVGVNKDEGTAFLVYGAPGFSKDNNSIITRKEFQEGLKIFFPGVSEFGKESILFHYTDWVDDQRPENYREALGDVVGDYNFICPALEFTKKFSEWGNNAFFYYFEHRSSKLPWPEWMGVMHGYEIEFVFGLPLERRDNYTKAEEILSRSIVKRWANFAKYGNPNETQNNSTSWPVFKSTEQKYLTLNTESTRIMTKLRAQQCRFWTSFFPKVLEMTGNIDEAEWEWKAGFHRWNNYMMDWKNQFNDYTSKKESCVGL", "assay": "Inhibition of BuChE (unknown origin) using butyrylthiocholine iodide as substrate by Ellman spectrophotometric method"}, "[3]": {"assay": "Cytotoxicity against rat 5RP7 cells after 24 hrs by MTT assay", "assay_type": "functional, cell-based", "conditions": "5RP7, 24 h"}, "Acetylcholinesterase": {"molecular_target": "Acetylcholinesterase (Electrophorus electricus, UniProt O42275)", "sequence (O42275 whole entry)": "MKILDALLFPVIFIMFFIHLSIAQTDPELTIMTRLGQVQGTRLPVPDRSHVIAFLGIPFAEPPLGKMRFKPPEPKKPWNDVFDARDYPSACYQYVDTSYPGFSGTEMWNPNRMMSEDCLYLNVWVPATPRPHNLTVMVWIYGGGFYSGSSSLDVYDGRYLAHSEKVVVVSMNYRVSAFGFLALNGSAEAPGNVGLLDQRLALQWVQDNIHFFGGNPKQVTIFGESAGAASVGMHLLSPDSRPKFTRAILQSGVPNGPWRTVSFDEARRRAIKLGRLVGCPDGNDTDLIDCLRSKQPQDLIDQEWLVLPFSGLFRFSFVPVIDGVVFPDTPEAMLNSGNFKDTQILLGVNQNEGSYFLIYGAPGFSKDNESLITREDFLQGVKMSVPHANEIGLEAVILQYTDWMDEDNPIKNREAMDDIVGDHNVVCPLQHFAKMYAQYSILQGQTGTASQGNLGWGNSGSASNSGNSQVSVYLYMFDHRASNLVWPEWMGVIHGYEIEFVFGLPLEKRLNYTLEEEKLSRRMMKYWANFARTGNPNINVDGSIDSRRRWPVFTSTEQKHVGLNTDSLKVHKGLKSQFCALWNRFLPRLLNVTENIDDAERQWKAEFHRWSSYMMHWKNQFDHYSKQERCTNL", "assay": "Inhibition of electric eel AChE using acetylthiocholine iodide as substrate at by Ellman spectrophotometric method"}, "A549 [4]": {"tested_on": "A549", "assay": "Cytotoxicity against human A549 cells after 24 hrs by MTT assay", "assay_type": "functional, cell-based", "conditions": "A549, 24 h"}, "Cholinesterase [5]": {"molecular_target": "T1, Cholinesterase", "assay": "Inhibition of BuChE (unknown origin) using butyrylthiocholine iodide as substrate at 80 ug/ml by Ellman spectrophotometric method"}, "C6 [6]": {"tested_on": "C6", "assay": "Cytotoxicity against rat C6 cells after 24 hrs by MTT assay", "assay_type": "functional, cell-based", "conditions": "C6, 24 h"}, "C6 [7]": {"tested_on": "C6", "assay": "Antiproliferative activity against rat C6 cells assessed as inhibition of DNA synthesis after 24 hrs by BrdU incorporation based ELISA", "assay_type": "functional, cell-based"}, "A549 [8]": {"tested_on": "A549", "assay": "Antiproliferative activity against human A549 cells assessed as inhibition of DNA synthesis after 24 hrs by BrdU incorporation based ELISA", "assay_type": "functional, cell-based"}, "C6 [9]": {"tested_on": "C6", "assay": "Selectivity index, ratio of IC50 for mouse NIH/3T3 cells to IC50 for rat C6 cells", "assay_type": "functional"}, "A549 [10]": {"tested_on": "A549", "assay": "Selectivity index, ratio of IC50 for mouse NIH/3T3 cells to IC50 for human A549 cells", "assay_type": "functional"}},
  "note": "pIC50: −log10 of the molar value. The source made the active and inactive calls. No cut-off for these calls is given here.",
  "data": [
    {"smiles": "COc1ccc(OC)c(-c2csc(Nc3ccc(-c4ccc(Nc5nc(-c6cc(OC)ccc6OC)cs5)c(OC)c4)cc3OC)n2)c1", "values": [
      {"measurement": "IC50", "setting": "[1]", "value": 170, "unit": "µg/mL"},
      {"measurement": "pIC50", "setting": "Cholinesterase [2]", "value": 4.24},
      {"measurement": "IC50", "setting": "[3]", "value": 12.3, "unit": "µg/mL"},
      {"measurement": "pIC50", "setting": "Acetylcholinesterase", "value": 4.25},
      {"measurement": "IC50", "setting": "A549 [4]", "value": 125, "unit": "µg/mL"},
      {"measurement": "inhibition", "setting": "Cholinesterase [5]", "value": 56.9, "unit": "%"},
      {"measurement": "IC50", "setting": "C6 [6]", "value": 103, "unit": "µg/mL"}
    ]},
    {"smiles": "COc1cc(-c2ccc(Nc3nc(-c4cc(Cl)ccc4Cl)cs3)c(OC)c2)ccc1Nc1nc(-c2cc(Cl)ccc2Cl)cs1", "values": [
      {"measurement": "IC50", "setting": "[1]", "value": 162, "unit": "µg/mL"},
      {"measurement": "pIC50", "setting": "Cholinesterase [2]", "value": "< 3.94"},
      {"measurement": "IC50", "setting": "[3]", "value": 54.3, "unit": "µg/mL"},
      {"measurement": "pIC50", "setting": "Acetylcholinesterase", "value": 4.01},
      {"measurement": "IC50", "setting": "A549 [4]", "value": 102, "unit": "µg/mL"},
      {"measurement": "inhibition", "setting": "Cholinesterase [5]", "value": 36.2, "unit": "%"},
      {"measurement": "IC50", "setting": "C6 [6]", "value": 38.3, "unit": "µg/mL"}
    ]},
    {"smiles": "COc1cc(-c2ccc(Nc3nc(-c4ccc(Cl)cc4Cl)cs3)c(OC)c2)ccc1Nc1nc(-c2ccc(Cl)cc2Cl)cs1", "values": [
      {"measurement": "IC50", "setting": "[1]", "value": "> 200", "unit": "µg/mL"},
      {"measurement": "pIC50", "setting": "Cholinesterase [2]", "value": 4.32},
      {"measurement": "IC50", "setting": "[3]", "value": "> 500", "unit": "µg/mL"},
      {"measurement": "pIC50", "setting": "Acetylcholinesterase", "value": 5.08},
      {"measurement": "IC50", "setting": "A549 [4]", "value": 133, "unit": "µg/mL"},
      {"measurement": "inhibition", "setting": "Cholinesterase [5]", "value": 84.4, "unit": "%"},
      {"measurement": "IC50", "setting": "C6 [6]", "value": 80, "unit": "µg/mL"}
    ]},
    {"smiles": "COc1cc(-c2ccc(Nc3nc(-c4ccc(C)cc4)cs3)c(OC)c2)ccc1Nc1nc(-c2ccc(C)cc2)cs1", "values": [
      {"measurement": "IC50", "setting": "[1]", "value": 153, "unit": "µg/mL"},
      {"measurement": "pIC50", "setting": "Cholinesterase [2]", "value": "< 3.87"},
      {"measurement": "IC50", "setting": "[3]", "value": "> 500", "unit": "µg/mL"},
      {"measurement": "pIC50", "setting": "Acetylcholinesterase", "value": 4.34},
      {"measurement": "IC50", "setting": "A549 [4]", "value": 98.3, "unit": "µg/mL"},
      {"measurement": "Activity", "setting": "C6 [7]", "value": "inactive"},
      {"measurement": "inhibition", "setting": "Cholinesterase [5]", "value": 40.9, "unit": "%"},
      {"measurement": "Activity", "setting": "A549 [8]", "value": "Active"},
      {"measurement": "IC50", "setting": "C6 [6]", "value": 21, "unit": "µg/mL"}
    ]},
    {"smiles": "COc1cc(-c2ccc(Nc3nc(-c4ccc(Br)cc4)cs3)c(OC)c2)ccc1Nc1nc(-c2ccc(Br)cc2)cs1", "values": [
      {"measurement": "IC50", "setting": "[1]", "value": 132, "unit": "µg/mL"},
      {"measurement": "IC50", "setting": "[3]", "value": 68.3, "unit": "µg/mL"},
      {"measurement": "pIC50", "setting": "Acetylcholinesterase", "value": 4.80},
      {"measurement": "IC50", "setting": "A549 [4]", "value": 37.3, "unit": "µg/mL"},
      {"measurement": "Activity", "setting": "C6 [7]", "value": "inactive"},
      {"measurement": "Ratio IC50", "setting": "C6 [9]", "value": 11.65},
      {"measurement": "Ratio IC50", "setting": "A549 [10]", "value": 3.53},
      {"measurement": "inhibition", "setting": "Cholinesterase [5]", "value": "inactive"},
      {"measurement": "Activity", "setting": "A549 [8]", "value": "Active"},
      {"measurement": "IC50", "setting": "C6 [6]", "value": 11.3, "unit": "µg/mL"}
    ]},
    {"smiles": "O=C1c2c(O)ccc(O)c2C(=O)c2c(NCCNCCO)ccc(NCCNCCO)c21", "note": "[MITOXANTRONE]", "values": [
      {"measurement": "IC50", "setting": "[3]", "value": 0.73, "unit": "µg/mL"},
      {"measurement": "IC50", "setting": "A549 [4]", "value": 15.7, "unit": "µg/mL"}
    ]},
    {"smiles": "COc1cc(-c2ccc(Nc3nc(-c4ccc([N+](=O)[O-])cc4)cs3)c(OC)c2)ccc1Nc1nc(-c2ccc([N+](=O)[O-])cc2)cs1", "values": [
      {"measurement": "IC50", "setting": "[1]", "value": 147, "unit": "µg/mL"},
      {"measurement": "pIC50", "setting": "Cholinesterase [2]", "value": "< 3.91"},
      {"measurement": "IC50", "setting": "[3]", "value": 5.83, "unit": "µg/mL"},
      {"measurement": "pIC50", "setting": "Acetylcholinesterase", "value": 4.80},
      {"measurement": "IC50", "setting": "A549 [4]", "value": 82.3, "unit": "µg/mL"},
      {"measurement": "Activity", "setting": "C6 [7]", "value": "inactive"},
      {"measurement": "inhibition", "setting": "Cholinesterase [5]", "value": 27.9, "unit": "%"},
      {"measurement": "Activity", "setting": "A549 [8]", "value": "Active"},
      {"measurement": "IC50", "setting": "C6 [6]", "value": 33.3, "unit": "µg/mL"}
    ]},
    {"smiles": "COc1cc(-c2ccc(Nc3nc(-c4ccc(Cl)c(Cl)c4)cs3)c(OC)c2)ccc1Nc1nc(-c2ccc(Cl)c(Cl)c2)cs1", "values": [
      {"measurement": "IC50", "setting": "[1]", "value": "> 200", "unit": "µg/mL"},
      {"measurement": "pIC50", "setting": "Cholinesterase [2]", "value": 3.96},
      {"measurement": "IC50", "setting": "[3]", "value": 207, "unit": "µg/mL"},
      {"measurement": "pIC50", "setting": "Acetylcholinesterase", "value": 4.79},
      {"measurement": "IC50", "setting": "A549 [4]", "value": 147, "unit": "µg/mL"},
      {"measurement": "inhibition", "setting": "Cholinesterase [5]", "value": 53.5, "unit": "%"},
      {"measurement": "IC50", "setting": "C6 [6]", "value": 90, "unit": "µg/mL"}
    ]},
    {"smiles": "COc1cc(-c2ccc(Nc3nc(-c4ccccc4)cs3)c(OC)c2)ccc1Nc1nc(-c2ccccc2)cs1", "values": [
      {"measurement": "IC50", "setting": "[1]", "value": 112, "unit": "µg/mL"},
      {"measurement": "IC50", "setting": "[3]", "value": 28, "unit": "µg/mL"},
      {"measurement": "pIC50", "setting": "Acetylcholinesterase", "value": 4.78},
      {"measurement": "IC50", "setting": "A549 [4]", "value": 103, "unit": "µg/mL"},
      {"measurement": "inhibition", "setting": "Cholinesterase [5]", "value": "inactive"},
      {"measurement": "IC50", "setting": "C6 [6]", "value": 49.3, "unit": "µg/mL"}
    ]},
    {"smiles": "COc1ccc(-c2csc(Nc3ccc(-c4ccc(Nc5nc(-c6ccc(OC)cc6)cs5)c(OC)c4)cc3OC)n2)cc1", "values": [
      {"measurement": "IC50", "setting": "[1]", "value": 98.3, "unit": "µg/mL"},
      {"measurement": "pIC50", "setting": "Cholinesterase [2]", "value": 3.97},
      {"measurement": "IC50", "setting": "[3]", "value": 13.3, "unit": "µg/mL"},
      {"measurement": "pIC50", "setting": "Acetylcholinesterase", "value": 4.91},
      {"measurement": "IC50", "setting": "A549 [4]", "value": 58.3, "unit": "µg/mL"},
      {"measurement": "Activity", "setting": "C6 [7]", "value": "inactive"},
      {"measurement": "inhibition", "setting": "Cholinesterase [5]", "value": 74.5, "unit": "%"},
      {"measurement": "Activity", "setting": "A549 [8]", "value": "Active"},
      {"measurement": "IC50", "setting": "C6 [6]", "value": 28.7, "unit": "µg/mL"}
    ]},
    {"smiles": "COc1cc(-c2ccc(Nc3nc(-c4ccc(Cl)cc4)cs3)c(OC)c2)ccc1Nc1nc(-c2ccc(Cl)cc2)cs1", "values": [
      {"measurement": "IC50", "setting": "[1]", "value": 112, "unit": "µg/mL"},
      {"measurement": "pIC50", "setting": "Cholinesterase [2]", "value": "< 3.90"},
      {"measurement": "IC50", "setting": "[3]", "value": 207, "unit": "µg/mL"},
      {"measurement": "pIC50", "setting": "Acetylcholinesterase", "value": 4.37},
      {"measurement": "IC50", "setting": "A549 [4]", "value": 105, "unit": "µg/mL"},
      {"measurement": "inhibition", "setting": "Cholinesterase [5]", "value": 39.1, "unit": "%"},
      {"measurement": "IC50", "setting": "C6 [6]", "value": 147, "unit": "µg/mL"}
    ]},
    {"smiles": "COc1cc(-c2ccc(NC(N)=S)c(OC)c2)ccc1NC(N)=S", "values": [
      {"measurement": "IC50", "setting": "[1]", "value": 195, "unit": "µg/mL"},
      {"measurement": "pIC50", "setting": "Cholinesterase [2]", "value": "< 3.66"},
      {"measurement": "IC50", "setting": "[3]", "value": 25.3, "unit": "µg/mL"},
      {"measurement": "pIC50", "setting": "Acetylcholinesterase", "value": 4.24},
      {"measurement": "IC50", "setting": "A549 [4]", "value": 178, "unit": "µg/mL"},
      {"measurement": "inhibition", "setting": "Cholinesterase [5]", "value": 26.7, "unit": "%"},
      {"measurement": "IC50", "setting": "C6 [6]", "value": 165, "unit": "µg/mL"}
    ]}
  ]
}
